Read-outs that look alike come from different tables or passages of the source.
How the values were obtained:
injured SH-SY5Y cells = assay: Protective effect against tert-butyl hydroperoxide-induced SH-SY5Y neurotoxicity cells (MTT assay); assay type: cell-based; settings: for viability at 3.125 µM / viability at 6.25 µM / viability at 12.5 µM / viability at 25 µM / viability at 50 µM / Proliferation Rate (%): injured SH-SY5Y cells; for viability at 3.125 µM / viability at 6.25 µM / viability at 12.5 µM / viability at 25 µM / viability at 50 µM: read-out: Proliferation Rate (%); for EC50: tert-butyl hydroperoxide-induced SH-SY5Y neurotoxicity, read-out: EC50 for protecting injured SH-SY5Y cells;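 on Proliferation Rate (%): 0% equals CoCl2-injured cells and 100% equals NGF-treated cells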
Method: The protective effects of baicalein derivatives in vitro was evaluated against tert-butyl, hydroperoxide-induced, SH-SY5Y neurotoxicity cells using an MTT assay. In addition, their toxicity evaluation was tested on normal H9C2 cells. The resulting proliferation rates (%) at different concentrations, as well as their 50% effective concentrations (EC50) for protecting damaged SH-SY5Y cells of the baicalein amino acid derivatives, are summarized in Table 2.
(§1) The SH-SY5Y ([…]) and H9C2 ([…]) cell lines were obtained from the Chinese Academy of Medical Sciences and Peking Union Medical College. All of the cell lines were grown in dulbecco’s modified eagle medium (DMEM) with 10% (v/v) fetal bovine serum (FBS) and 1% (v/v) penicillin/streptomycin (Thermo Technologies, New York, NY, USA), under a humidified atmosphere containing 5% CO2 at 37 °C. The baicalein derivatives were dissolved in DMSO (Sigma, St. Louis, MO, USA) and added at various concentrations to the cell culture.
(§2) The protective effect of these compounds was evaluated on SH-SY5Y and H9C2 cell lines via the MTT method. The cells growing in the logarithmic phase were cultured in 96-well plates at a density 3 × 10^3 cells/well and incubated for 24 h. Then each well was treated with the required concentrations (50 µM concentrations, 25 µM concentrations, 12.5µM concentrations, 6.25 µM concentrations, and 3.125 µM concentrations) of baicalein derivatives, and incubated 36 h at 37 °C with 5% CO2. After that, the cells were induced by H2O2 (final concentration, […]) for 12 h. Control-differentiated cells were injected with new growth media at equal amounts. Before […] MTT solution (5 mg/mL) was added to each well, the cell culture fluid was discarded, and […] fresh cell culture fluid was added. The plate was incubated for a further 4 h at 37 °C. The cell supernatant medium was removed carefully, without disturbing the attached cells, and formazan crystals were solubilized by adding 150 μL DMSO into each well. The absorbance was measured at 490 nm with a plate reader (BIORAD 550 spectrophotometer, Bio-rad Life Science Development Ltd., Beijing, China). H2O2 was dissolved in DMEM medium. Wells without drugs were used as blanks. The EC50 values were defined as the concentrations that causes the maximum effect of 50%; IC50 values were defined as the concentration of compound which gives 50% growth inhibition, and were calculated using the GraphPad Prism 5. The proliferation rates of damaged SH-SY5Y cells were calculated in the following formula (1): [OD490 (compound) − OD490 (CoCl2)]/[OD490 (NGF) − OD490 (CoCl2)] × 100%(1) The EC50 values were using the equation −pEC50 = log Cmax − log 2 × (ΣP − 0.75 + 0.25Pmax + 0.25Pmin)(2) where Cmax is the maximum concentration, ΣP is the sum of proliferation rates, Pmax is the maximum value of the proliferation rate, and Pmin is the minimum value of the proliferation rate. Cell viability was expressed as a percentage of the control.

H9C2 cells [1] = assay: Toxicity on normal H9C2 cells (MTT assay); assay type: cell-based; settings: MTT; for viability at 6.25 µM / viability at 12.5 µM / viability at 25 µM / viability at 50 µM / Survival Rate (%): H9C2 cells; for viability at 6.25 µM / viability at 12.5 µM / viability at 25 µM / viability at 50 µM: read-out: Survival Rate (%); for IC50: normal H9C2 cells
Method: To study cytotoxicity on normal cells, the cytotoxicity of compounds against normal H9C2 cells were tested.
as §1, §2
The inhibition rate was calculated in the following equation: % inhibition = 1 − (Sample group OD/Control group OD) × 100%(3)

H9C2 cells [2] = assay: Toxicity on normal H9C2 cells (MTT assay); assay type: cell-based; settings: for viability at 100 µM: read-out: Survival Rate (%); for Survival Rate (%): 100 µM

With `O=C(CC(NC(=O)OCc1ccccc1)C(=O)OCc1ccccc1)Oc1c(O)cc2oc(-c3ccccc3)cc(=O)c2c1O` (centres unmarked) [Compound 4, 1-benzyl 5,7-dihydroxy-4-oxo-2-phenyl-4H-chromen-6-yl 2-{[(benzyloxy)carbonyl]amino} butanedioate] the viability at 3.125 µM (injured SH-SY5Y cells; Homo sapiens, 3.125 µM) was 59.1%, the viability at 6.25 µM (injured SH-SY5Y cells; Homo sapiens, 6.25 µM) was 94.1% and the viability at 12.5 µM (injured SH-SY5Y cells; Homo sapiens, 12.5 µM) was 77.7%. For the same compound, the viability at 25 µM (injured SH-SY5Y cells; Homo sapiens, 25 µM) was 70.2%, the viability at 50 µM (injured SH-SY5Y cells; Homo sapiens, 50 µM) was 54.8% and the EC50 (injured SH-SY5Y cells; Homo sapiens) was 5.51 µM. For the same compound, the viability at 6.25 µM (H9C2 cells [1]; 6.25 µM) was 156%, the viability at 12.5 µM (H9C2 cells [1]; 12.5 µM) was 140% and the viability at 25 µM (H9C2 cells [1]; 25 µM) was 140%. For the same compound, the viability at 50 µM (H9C2 cells [1]; 50 µM) was 131%, the IC50 (H9C2 cells [1]) was > 100 µM and the melting point was 157.8 °C. The viability at 100 µM (H9C2 cells [2]) was 126%.
`CC(C)(C)C(NC(=O)OCc1ccccc1)C(=O)Oc1cc2oc(-c3ccccc3)cc(=O)c2c(O)c1OC(=O)C(NC(=O)OCc1ccccc1)C(C)(C)C` (centres unmarked) [Compound 2] gave a viability at 3.125 µM (injured SH-SY5Y cells; Homo sapiens, 3.125 µM) of 45.1%, a viability at 6.25 µM (injured SH-SY5Y cells; Homo sapiens, 6.25 µM) of 48.2% and a viability at 12.5 µM (injured SH-SY5Y cells; Homo sapiens, 12.5 µM) of 81%. For the same compound, the viability at 25 µM (injured SH-SY5Y cells; Homo sapiens, 25 µM) was 107%, the viability at 50 µM (injured SH-SY5Y cells; Homo sapiens, 50 µM) was 94.2% and the EC50 (injured SH-SY5Y cells; Homo sapiens) was 4.79 µM. For the same compound, the viability at 6.25 µM (H9C2 cells [1]; 6.25 µM) was 213%, the viability at 12.5 µM (H9C2 cells [1]; 12.5 µM) was 150% and the viability at 25 µM (H9C2 cells [1]; 25 µM) was 133%. For the same compound, the viability at 50 µM (H9C2 cells [1]; 50 µM) was 112%, the IC50 (H9C2 cells [1]) was > 100 µM and the melting point was 195.8 °C. It also gave a viability at 100 µM (H9C2 cells [2]) of 108%.
For “5,6-dihydroxy-4-oxo-2-phenyl-chroman-7-yl 2-{[(tert-butoxy)carbonyl]amino}-3-methyl-pentanoate [Compound 10]”, the “Proliferation Rate (%)” value (injured SH-SY5Y cells; 3.125 µM) was 75.23%, the “Proliferation Rate (%)” value (injured SH-SY5Y cells; 6.25 µM) was 77.21% and the “Proliferation Rate (%)” value (injured SH-SY5Y cells; 12.5 µM) was 79.27%. For the same compound, the “Proliferation Rate (%)” value (injured SH-SY5Y cells; 25 µM) was 74.55%, the “Proliferation Rate (%)” value (injured SH-SY5Y cells; 50 µM) was 63.22% and the EC50 (injured SH-SY5Y cells) was 5.07 µM. The “Survival Rate (%)” value (H9C2 cells [1]; 6.25 µM) was 194.73%, the “Survival Rate (%)” value (H9C2 cells [1]; 12.5 µM) was 179.84% and the “Survival Rate (%)” value (H9C2 cells [1]; 25 µM) was 169.33%. For the same compound, the “Survival Rate (%)” value (H9C2 cells [1]; 50 µM) was 152.13%, the IC50 (H9C2 cells [1]) was > 100 µM and the “Survival Rate (%)” value (H9C2 cells [2]) was 141.70%.
Work on `CC1=NN(c2ccccc2)C(=O)C1` [Edaravone, reference compound] yielded a viability at 3.125 µM (injured SH-SY5Y cells; Homo sapiens, 3.125 µM) of 61.4%, a viability at 6.25 µM (injured SH-SY5Y cells; Homo sapiens, 6.25 µM) of 85.8% and a viability at 12.5 µM (injured SH-SY5Y cells; Homo sapiens, 12.5 µM) of 76.1%. The viability at 25 µM (injured SH-SY5Y cells; Homo sapiens, 25 µM) was 69.9%, the viability at 50 µM (injured SH-SY5Y cells; Homo sapiens, 50 µM) was 60.7% and the EC50 (injured SH-SY5Y cells; Homo sapiens) was 5.62 µM.
`O=c1cc(-c2ccccc2)oc2cc(O)c(O)c(O)c12` [Baicalein, 5,6,7-trihydroxyflavone] showed a viability at 3.125 µM (injured SH-SY5Y cells; Homo sapiens, 3.125 µM) of 54.7%, a viability at 6.25 µM (injured SH-SY5Y cells; Homo sapiens, 6.25 µM) of 35.1% and a viability at 12.5 µM (injured SH-SY5Y cells; Homo sapiens, 12.5 µM) of 29.9%. For the same compound, the viability at 25 µM (injured SH-SY5Y cells; Homo sapiens, 25 µM) was 28.4%, the viability at 50 µM (injured SH-SY5Y cells; Homo sapiens, 50 µM) was 11.7% and the EC50 (injured SH-SY5Y cells; Homo sapiens) was 24.8 µM. It also gave a viability at 6.25 µM (H9C2 cells [1]; 6.25 µM) of 212%, a viability at 12.5 µM (H9C2 cells [1]; 12.5 µM) of 198% and a viability at 25 µM (H9C2 cells [1]; 25 µM) of 179%. For the same compound, the viability at 50 µM (H9C2 cells [1]; 50 µM) was 170%, the IC50 (H9C2 cells [1]) was > 100 µM and the viability at 100 µM (H9C2 cells [2]) was 168%.
For “1-tert-butyl 2-(5,7-dihydroxy-4-oxo-2-phenyl-chroman-6-yl) pyrrolidine-1,2-dicarboxylate [Compound 11]”, the “Proliferation Rate (%)” value (injured SH-SY5Y cells; 3.125 µM) was 47.94%, the “Proliferation Rate (%)” value (injured SH-SY5Y cells; 6.25 µM) was 86.25% and the “Proliferation Rate (%)” value (injured SH-SY5Y cells; 12.5 µM) was 78.16%. The “Proliferation Rate (%)” value (injured SH-SY5Y cells; 25 µM) was 74.48%, the “Proliferation Rate (%)” value (injured SH-SY5Y cells; 50 µM) was 64.80% and the EC50 (injured SH-SY5Y cells) was 5.82 µM. The “Survival Rate (%)” value (H9C2 cells [1]; 6.25 µM) was 70.98%, the “Survival Rate (%)” value (H9C2 cells [1]; 12.5 µM) was 67.32% and the “Survival Rate (%)” value (H9C2 cells [1]; 25 µM) was 61.98%. For the same compound, the “Survival Rate (%)” value (H9C2 cells [1]; 50 µM) was 60.67%, the IC50 (H9C2 cells [1]) was 95.2 µM and the “Survival Rate (%)” value (H9C2 cells [2]) was 45.75%.

Source: publication PMC6832219, “Synthesis of Novel Baicalein Amino Acid Derivatives and Biological Evaluation as Neuroprotective Agents” (Molecules, 2019)
